Data as given in article PMC2729173 (Cancer research, 2009).
Structures can show the parent of a compound that is named as a salt. Where two headings read alike, the source gives them in different places. Values belong to the compound of their own block, whether it stands above or below them.

Key:
[1] = rat; cited from earlier work
BCRP = target: T1, BCRP (Homo sapiens, UniProt Q9UNQ0); type: cell-based; details: for intracellular topotecan lactone concentration: topotecan 500 ng/mL
T1 sequence (Q9UNQ0 1-655): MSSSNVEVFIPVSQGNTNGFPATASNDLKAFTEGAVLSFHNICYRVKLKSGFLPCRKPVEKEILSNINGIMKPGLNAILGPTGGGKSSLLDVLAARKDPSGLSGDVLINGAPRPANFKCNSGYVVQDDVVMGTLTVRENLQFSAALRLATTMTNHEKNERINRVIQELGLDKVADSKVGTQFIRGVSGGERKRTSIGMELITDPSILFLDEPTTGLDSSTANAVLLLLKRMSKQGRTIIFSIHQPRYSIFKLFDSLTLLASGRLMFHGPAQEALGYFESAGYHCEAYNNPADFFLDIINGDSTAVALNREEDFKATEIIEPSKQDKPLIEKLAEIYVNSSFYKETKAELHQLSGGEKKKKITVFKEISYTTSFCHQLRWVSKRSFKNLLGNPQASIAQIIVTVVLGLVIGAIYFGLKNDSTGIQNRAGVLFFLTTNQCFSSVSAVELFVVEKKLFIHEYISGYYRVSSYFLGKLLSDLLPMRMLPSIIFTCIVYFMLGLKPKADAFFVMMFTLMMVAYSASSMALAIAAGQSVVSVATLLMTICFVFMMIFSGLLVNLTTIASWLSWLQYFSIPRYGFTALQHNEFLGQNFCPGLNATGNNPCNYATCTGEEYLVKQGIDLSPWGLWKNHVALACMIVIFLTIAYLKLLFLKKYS

[2] = Topotecan lactone plasma protein binding; type: in vitro ADME, mice; details: mouse, unbound fraction of plasma topotecan lactone, mean ±SD
[3] = Intracerebral microdialysis of brain parenchymal ECF; details: topotecan 4 mg/kg i.v.; for ECF CLin-to-CLout ratio of unbound topotecan lactone: three-compartment model; for Kp: mouse, brain ECF (striatum microdialysate) vs plasma, intravenous, 4 mg/kg, ECF-to-plasma AUC ratio of unbound topotecan lactone (AUCu,ECF/AUCu,plasma), mean ±SD; for topotecan lactone ECF concentrations: Mdr1a/b−/− mice
[4] = Intracerebral microdialysis of ventricular CSF; details: topotecan 4 mg/kg i.v., three-compartment model

Structure (SMILES): CCCNCCOc1ccc(NC(=O)c2c[nH]c3c2C(=O)CCC3)cc1F [CP-615,003]
- accumulation in CSF relative to ECF [1]: 7 fold

- topotecan carboxylate detection in cells (BCRP; pH 6): not detected
- difference in intracellular topotecan carboxylate accumulation between Saos2-pcDNA and Saos2-BCRP cells (BCRP; pH 8, data not shown): no difference
Structure (SMILES): CCC(O)(C(=O)O)c1cc2n(c(=O)c1CO)Cc1cc3c(CN(C)C)c(O)ccc3nc1-2 (centres unmarked) [Topotecan carboxylate]

- fraction unbound ([2]; FVB, wild-type mice): 0.301
- fraction unbound ([2]; Bcrp1−/− mice): 0.309
- fraction unbound ([2]; Mdr1a/b−/− mice): 0.292
- fraction unbound ([2]; Mdr1a/b−/−Bcrp1−/− mice): 0.275
- intracellular topotecan lactone concentration (BCRP; Saos2-BCRP cells, 1-min incubation, pH 6): 0.043±0.005 ng/μg protein
- intracellular topotecan lactone concentration (BCRP; Saos2-BCRP cells, 30-min incubation, pH 6): 0.026 ± 0.004 ng/µg
- intracellular topotecan lactone concentration (BCRP; Saos2-pcDNA control cells, 1-min incubation, pH 6): 0.063±0.01 ng/μg protein
- intracellular topotecan lactone concentration (BCRP; Saos2-pcDNA control cells, 30-min incubation, pH 6): 0.039 ± 0.003 ng/µg
- ECF CLin-to-CLout ratio of unbound topotecan lactone ([3]; Bcrp1−/− mice): 0.42 ± 0.06
- Kp ([3]; Bcrp1−/−, Bcrp1−/− mice): 0.42 ± 0.06
- ECF CLin-to-CLout ratio of unbound topotecan lactone ([3]; FVB wild-type mice): 0.36 ± 0.06
- Kp ([3]; FVB, Mdr1a/b−/−Bcrp1−/− mice): 0.89 ± 0.07
- topotecan lactone ECF concentrations ([3]; listed as Topotecan lactone): below detectable limits
- topotecan lactone ECF concentrations ([3]; listed as topotecan lactone): below the lower limit of detection
- ECF CLin-to-CLout ratio of unbound topotecan lactone ([3]; Mdr1a/b−/−Bcrp1−/− mice): 0.89 ± 0.07
- Kp ([3]; Mdr1a/b−/−Bcrp1−/−, Mdr1a/b−/−Bcrp1−/− mice): 0.88 ± 0.07
- vCSF CLin-to-CLout ratio of unbound topotecan lactone ([4]; Bcrp1−/− mice): 1.59 ± 0.16
- vCSF CLin-to-CLout ratio of unbound topotecan lactone ([4]; FVB wild-type mice): 3.01 ± 0.15
- vCSF CLin-to-CLout ratio of unbound topotecan lactone ([4]; Mdr1a/b−/− mice): 2.57 ± 0.17
- vCSF CLin-to-CLout ratio of unbound topotecan lactone ([4]; Mdr1a/b−/−Bcrp1−/− mice): 0.86 ± 0.04
Structure (SMILES): CC[C@@]1(O)C(=O)OCc2c1cc1n(c2=O)Cc2cc3c(CN(C)C)c(O)ccc3nc2-1 [Topotecan, Topotecan hydrochloride]
